{
  "source": "patent US20040157866A1",
  "about": "“Amide compounds” (priority 2001, published 2004)",
  "key": {"ddY-mice": {"test_system": "ddY-mice", "assay": "Test 2: Lipids Lowering Effect on ddY-Mice", "type": "in vivo", "conditions": "male ddY-mice, oral dose 10 mg/kg, relative to baseline; for Cholesterol (% of 0 hr) 2 hr: plasma total-cholesterol 2 hours after administration; for Triglyceride (% of 0 hr) 2 hr: plasma triglyceride 2 hours after administration", "source_text": "Test 2: Lipids Lowering Effect on ddY-Mice\nMale ddY-mice were housed in temperature- and humidity-controlled rooms and fed with laboratory chow. The animals were randomized according to their body weight and deprived of food just before the experiment. A blood sample (baseline blood sample) was collected from the retro orbital venous plexus before administration of the test drug, and then the animals were orally dosed with the test drug in a vehicle (aqueous solution of 0.5% methylcellulose). Blood samples were drawn at 2 hours after drug administration for the measurement of cholesterol and triglyceride.\nPlasma total-cholesterol and plasma triglyceride were determined by conventional enzyme methods using commercially available kits. The cholesterol CII-Test Wako (Wako Pure Chemical Industries, Ltd.) was used for the measurement of cholesterol, and the triglyceride E-test Wako (Wako Pure Chemical Industries, Ltd.) was used for the measurement of triglyceride.\nLipids lowering effects were shown in percent relative to the baseline level (level at 0 hr)."}, "Apo B secretion": {"test_system": "Apo B secretion", "assay": "Test 1: Measurement of Inhibition of Apo B Secretion (HepG2 cells, ELISA)", "type": "cell-based", "conditions": "1 × 10^−8 M test compound, 15-hour incubation, 0.1% DMSO treated cells as controls; for inhibition at 0.01 µM: Homo sapiens", "method": "Test 1: Measurement of Inhibition of Apo B Secretion\nHepG2 cells were seeded in Eagles medium containing 10% fetal calf serum (FCS) at a density of 30000 cells/well in 96-well plates and allowed to grow for 3 days before treatment. At this time, the medium was replaced with fresh medium containing 0.1% dimethyl sulfoxide (DMSO) and the indicated concentrations of a test compound. After 15-hour incubation, the amount of Apo B and Apo AI accumulated in the media was determined by ELISA.\nThe assay was carried out at room temperature. A flat bottomed micro ELISA plate (manufactured by Nunc) was coated with an anti Apo B monoclonal antibody solution ([…] in 0.05% carbonate buffer, pH 9.6) by adding the antibody solution at a volume of 100 μl per well. After 1-hour incubation on a plate mixer, the unbound materials were removed by washing the well 3 times with a washing buffer (phosphate buffered saline, pH 7.2 containing 0.1% bovine serum albumin and 0.05% Tween-20). Then 20 μl of a solution of the test compound (dissolved in the culture medium) and 100 μl of a solution of peroxidase coupled anti Apo B antibody were added. After 1-hour incubation on a plate mixer, washing was performed 3 times to remove the unbound materials. A freshly prepared substrate solution (2.5 mg/ml ortho-phenylene diamine and 0.018% H2O2 in 0.11M Na2HPO4-0.044 M sodium citrate buffer, pH 5.4) at a volume of 200 μl was then added to each well. After 20-minute incubation, the enzyme reaction was terminated by adding 50 μl of 0.5 M sulfuric acid. Absorbance of each well was determined at 490 nm using a microplate reader. Apo B concentration was calculated from a standard curve generated from purified Apo B standard that was run in parallel in the same plate. Inhibition of Apo B secretion by the test compound is calculated taking 0.1% DMSO treated cells as controls.\nMeasurement of Apo AI was performed similar to that of Apo B, except for diluting the sample 11-fold with a dilution buffer (phosphate buffered saline, pH 7.2 containing 0.5% bovine serum albumin and 0.05% Tween-20).\nApo B secretion inhibitors are identified as compounds that decrease Apo B secretion without affecting the secretion of Apo AI."}},
  "data": [
    {"compound": "O=C(Nc1ccc2c(c1)CCN2C(=O)Cc1ccccn1)c1ccccc1-c1ccc(C(F)(F)F)cc1", "note": "[Example 4, N-[1-(2-Pyridinylacetyl)-2,3-dihydro-1H-indol-5-yl]-4′-(trifluoromethyl)-1,1′-biphenyl-2-carboxamide]", "values": [
      {"measurement": "Cholesterol (% of 0 hr) 2 hr", "setting": "ddY-mice", "result": "75 % of 0 hr"},
      {"measurement": "Triglyceride (% of 0 hr) 2 hr", "setting": "ddY-mice", "result": "13 % of 0 hr"},
      {"measurement": "Inhibition of Apo B secretion at 1 × 10^−8 M (%)", "setting": "Apo B secretion", "result": 92.0, "unit": "%"}
    ]},
    {"compound": "O=C(Nc1ccc2c(c1)CCN2CCc1ccccn1)c1ccccc1-c1ccc(C(F)(F)F)cc1", "note": "[Example 1, N-{1-[2-(2-Pyridinyl)ethyl]-2,3-dihydro-1H-indol-5-yl}-4′-(trifluoromethyl)-1,1′-biphenyl-2-carboxamide]", "values": [
      {"measurement": "Cholesterol (% of 0 hr) 2 hr", "setting": "ddY-mice", "result": "90 % of 0 hr"},
      {"measurement": "Triglyceride (% of 0 hr) 2 hr", "setting": "ddY-mice", "result": "13 % of 0 hr"},
      {"measurement": "inhibition at 0.01 µM", "setting": "Apo B secretion", "result": 92.2, "unit": "%"}
    ]},
    {"compound": "Nc1nc(CC(=O)N2CCc3cc(NC(=O)c4ccccc4-c4ccc(C(F)(F)F)cc4)ccc32)cs1", "note": "[Example 58, N-{1-[(2-amino-1,3-thiazol-4-yl)acetyl]-2,3-dihydro-1H-indol-5-yl}-4′-(trifluoromethyl)-1,1′-biphenyl-2-carboxamide]", "values": [
      {"measurement": "inhibition at 0.01 µM", "setting": "Apo B secretion", "result": 90.7, "unit": "%"}
    ]},
    {"compound": "Cc1ccc(-c2cc(C)ccc2C(=O)Nc2ccc3c(c2)CCN3C(=O)Cc2ccccn2)cc1", "note": "[Example 11, 4′,5-Dimethyl-N-[1-(2-pyridinylacetyl)-2,3-dihydro-1H-indol-5-yl]-1,1′-biphenyl-2-carboxamide]", "values": [
      {"measurement": "Inhibition of Apo B secretion at 1 × 10^−8 M (%)", "setting": "Apo B secretion", "result": 97.2, "unit": "%"}
    ]}
  ]
}
